Assay results reported in patent US9132130B2, “Purine derivative and antitumor agent using same” (ZENYAKU KOGYO KABUSHIKI KAISHA, priority 2009, dated 2015).

Experiments:
Format in all cases: cell-based
[1] = test system: WiDr cells (human colon cancer cells); assay: in vitro antitumor activity test, WiDr cells, XTT colorimetry; conditions: cultured 72 hours
Protocol: (§1) WiDr cells (human colon cancer cells) subcultured in a culture medium composed of a MEM medium added with 10% fetal bovine serum, 25 mM HEPES and 0.1 mg/ml kanamycin under the conditions of 37° C. and 5% carbon dioxide gas were made into single floating cells by treating with trypsin/EDTA, and a single cell suspension of 3×10^4 cells per 1 ml was prepared using the MEM medium (added with 10% fetal bovine serum, 25 mM HEPES and 0.1 mg/ml kanamycin). After dissolving the test compounds in DMSO, they were diluted in a RPMI 1640 medium (added with 10% fetal bovine serum, 25 mM HEPES and 0.1 mg/ml kanamycin) and prepared so that the concentrations were 2.0×10^−9 to 2.0×10^−4 M.
(§2) 0.1 ml of the cell suspension was placed into each well of 96-well microplates, cultured for 24 hours to allow the cells to adhere to the microplates, then 0.1 ml of the sample solutions were added, and cultured for 72 hours at 37° C. in 5% carbon dioxide gas.
(§3) Afterwards, the level of growth inhibition at various sample concentrations was obtained using XTT colorimetry, and concentrations at which growth was inhibited by 50% (GI50 values [μM]) were calculated.

[2] = test system: B16F10 cells (mouse melanoma [malignant melanoma] cells); assay: in vitro antitumor activity test, B16F10 cells, XTT colorimetry; conditions: B16-F10, cultured 72 hours
Protocol: as §1, §2, §3
(§4) In addition, cells other than WiDr cells that were used, and the condition for preparing each single cell suspension were as follows.
B16F10 cells (mouse melanoma [malignant melanoma] cells): 1×10^4 cells/ml

[3] = test system: P388 cells (mouse leukemia cells); assay: in vitro antitumor activity test, P388 cells, XTT colorimetry; conditions: cultured 72 hours
Protocol: P388 cells (mouse leukemia cells) passaged in the abdominal cavity of DBA/2 mice were extracted with ascitic fluid, and cultured in a RPMI 1640 medium (added with 10% fetal bovine serum, 25 mM HEPES, 0.1 mg/ml kanamycin and 5 μM 2-hydroxyethyldisulfide) at 37° C. in 5% carbon dioxide gas. After culturing for 16 hours, floating P388 cells were made into a single cell suspension of 4×10^4 cells per 1 ml using the same RPMI 1640 medium as given above. The test substances were dissolved in DMSO, then diluted in a RPMI 1640 medium (added with 10% fetal bovine serum, 25 mM HEPES and 0.1 mg/ml kanamycin) and prepared so that the concentrations were 2.0×10^−9 to 2.0×10^−4 M.
0.1 ml of the cell suspension was placed into each well of 96-well microplates, then 0.1 ml of the sample solutions were added, and cultured for 72 hours at 37° C. in 5% carbon dioxide gas.
as §3

[4] = test system: PC-3 cells (human prostate cancer cells); assay: in vitro antitumor activity test, PC-3 cells, XTT colorimetry; conditions: PC-3 human prostate cancer cells, cultured 72 hours
Protocol: as §1, §2, §3, §4
PC-3 cells (human prostate cancer cells): 2×10^4 cells/ml

[5] = test system: A549 cells (human lung cancer cells); assay: in vitro antitumor activity test, A549 cells, XTT colorimetry; conditions: cultured 72 hours
Protocol: as §1, §2, §3, §4
A549 cells (human lung cancer cells): 2×10^4 cells/ml

Row | GI50 [1] [nM] | GI50 [2] [nM] | GI50 [3] [nM] | GI50 [4] [nM] | GI50 [5] [nM] | SMILES
1 | 140 | 340 | 100 | 140 | 220 | COc1ccc(CSc2nc(N(C)C)c3ncn(C)c3n2)cc1 [Compound 21, 6-dimethylamino-2-(4-methoxybenzylsulfanyl)-9-methyl-9H-purine]
2 | < 40 | 70 | < 40 | 50 | < 40 | COc1ccc(CSc2nc(-c3cn[nH]c3)c3ncn(C)c3n2)cc1 [Compound 170, 2-(4-methoxybenzylsulfanyl)-9-methyl-6-(pyrazol-4-yl)-9H-purine]
3 | 510 | 540 | 280 | 870 | 670 | C/C=C/c1nc(SCc2ccc(OC)cc2)nc2c1ncn2C [Compound 163, 2-(4-methoxybenzylsulfanyl)-9-methyl-6-(1-trans-propenyl)-9H-purine]
4 | 6110 | 4630 | 3290 | 150 | 3900 | CCc1nc2c(N3CCOCC3)nc(SC(c3ccccc3)c3ccccc3)nc2n1C [Compound 100, 2-benzhydrylsulfanyl-8-ethyl-9-methyl-6-morpholino-9H-purine]
5 | 820 | 1380 | 680 | 1130 | 950 | CCN(CC)c1nc(SCc2ccc(OC)cc2)nc2c1ncn2C [Compound 25, 6-diethylamino-2-(4-methoxybenzylsulfanyl)-9-methyl-9H-purine]
6 | 300 | 290 | 90 | 120 | 140 | CCc1nc2c(N3CCOCC3)nc(SCc3ccc(OC)c(N)c3)nc2n1CC [Compound 97, 2-(3-amino-4-methoxybenzylsulfanyl)-8,9-diethyl-6-morpholino-9H-purine]
7 | 210 | 300 | 110 | 300 | 140 | CCN(C)c1nc(SCc2ccc(OC)c(F)c2)nc2c1ncn2C [Compound 82, 6-(N-ethyl-N-methylamino)-2-(3-fluoro-4-methoxybenzylsulfanyl)-9-methyl-9H-purine]
8 | 90 | 140 | 90 | 340 | 140 | CCNc1nc(SCc2ccc(OC)c(F)c2)nc2c1ncn2C [Compound 91, 6-ethylamino-2-(3-fluoro-4-methoxybenzylsulfanyl)-9-methyl-9H-purine]
9 | 1470 | 1700 | 1020 | 610 | 2200 | CCc1nc2c(N3CCOCC3)nc(SCc3ccc(C)cc3)nc2n1C [Compound 8, 8-ethyl-9-methyl-2-(4-methylbenzylsulfanyl)-6-morpholino-9H-purine]
10 | 1300 | 1500 | 1000 | 440 | 1400 | C=Cc1cc(CSc2nc(N3CCOCC3)c3nc(CC)n(C)c3n2)ccc1OC [Compound 79, 8-ethyl-2-(4-methoxy-3-vinylbenzylsulfanyl)-9-methyl-6-morpholino-9H-purine]
11 | 1900 | 510 | 260 | 980 | 550 | CCN(C)c1nc(SCc2ccc(OC)c(N)c2)nc2c1ncn2C [Compound 84, 2-(3-amino-4-methoxybenzylsulfanyl)-6-(N-ethyl-N-methylamino)-9-methyl-9H-purine]
12 | 170 | 370 | 90 | 220 | 100 | CCn1cnc2c(N3C=COCC3)nc(SCc3ccc(OC)c(F)c3)nc21 [Compound 154, 6-(2,3-dihydro-[1,4]oxadin-4-yl)-9-ethyl-2-(3-fluoro-4-methoxybenzylsulfanyl)-9H-purine]
13 | < 40 | < 40 | < 40 | < 40 | < 40 | COc1ccc(CSc2nc(N3C=COCC3)c3ncn(C)c3n2)cc1C#N [Compound 153, 2-(3-cyano-4-methoxybenzylsulfanyl)-6-(2,3-dihydro-[1,4]oxadin-4-yl)-9-methyl-9H-purine]
14 | > 10000 | > 10000 | > 10000 | > 10000 | > 10000 | CN(C)c1nc(SCc2ccccc2)nc2[nH]cnc12 [Compound C, reference compound]
15 | 40 | 80 | 40 | 120 | 50 | COc1ccc(CSc2nc(N3C=COCC3)c3ncn(C)c3n2)cc1 [Compound 147, 6-(2,3-dihydro-[1,4]oxadin-4-yl)-2-(4-methoxybenzylsulfanyl)-9-methyl-9H-purine]

Second part, the compound before the results:

Row | SMILES | GI50 [1] [nM] | GI50 [2] [nM] | GI50 [3] [nM] | GI50 [4] [nM] | GI50 [5] [nM]
16 | CCc1nc2c(N(C)C)nc(SCc3ccc(OC)c(C#N)c3)nc2n1C [Compound 69, 2-(3-cyano-4-methoxybenzylsulfanyl)-6-dimethylamino-8-ethyl-9-methyl-9H-purine] | 150 | 200 | 110 | 120 | 150
17 | CCc1nc2c(N3CCOCC3)nc(SCc3ccc(C)c(F)c3)nc2n1C [Compound 11, 8-ethyl-2-(3-fluoro-4-methylbenzylsulfanyl)-9-methyl-6-morpholino-9H-purine] | 1040 | 1490 | 670 | 400 | 1160
18 | CCc1nc2c(N(C)C)nc(SCc3ccc(OC)cc3)nc2n1C [Compound 24, 6-dimethylamino-8-ethyl-2-(4-methoxybenzylsulfanyl)-9-methyl-9H-purine] | 210 | 440 | 200 | 260 | 320
19 | CCc1nc2c(N3CCOCC3)nc(SCc3ccc(OC)c(F)c3)nc2n1CC [Compound 123, 8,9-diethyl-2-(3-fluoro-4-methoxybenzylsulfanyl)-6-morpholino-9H-purine] | 200 | 370 | 130 | 240 | 420
20 | CCOc1ccc(CSc2nc(N3CCOCC3)c3nc(CC)n(C)c3n2)cc1 [Compound 17, 2-(4-ethoxybenzylsulfanyl)-8-ethyl-9-methyl-6-morpholino-9H-purine] | 510 | 1290 | 360 | 460 | 760
21 | COc1ccc(CSc2nc(N3CCOCC3)c3ncn(C)c3n2)cc1C#N [Compound 80, 2-(3-cyano-4-methoxybenzylsulfanyl)-9-methyl-6-morpholino-9H-purine] | 160 | 210 | 70 | 70 | 140
22 | CCOc1ccc(CSc2nc(N3C=COCC3)c3ncn(CC)c3n2)cc1[N+](=O)[O-] [Compound 155, 6-(2,3-dihydro-[1,4]oxadin-4-yl)-9-ethyl-2-(3-nitro-4-ethoxybenzylsulfanyl)-9H-purine] | 940 | 1310 | 490 | 1500 | 500
23 | COc1ccc(CSc2nc(N(C)OC)c3ncn(C)c3n2)cc1N [Compound 145, 2-(3-amino-4-methoxybenzylsulfanyl)-6-(N-methoxy-N-methylamino)-9-methyl-9H-purine] | 810 | 190 | < 40 | 130 | 80
24 | COc1ccc(CSc2nc(-c3ccc([N+](=O)[O-])cc3)c3ncn(C)c3n2)cc1 [Compound 166, 2-(4-methoxybenzylsulfanyl)-9-methyl-6-(4-nitrophenyl)-9H-purine] | 820 | 1550 | 280 | 1390 | 670
25 | CCc1nc2c(N3C=COCC3)nc(SCc3ccc(OC)cc3)nc2n1C [Compound 148, 6-(2,3-dihydro-[1,4]oxadin-4-yl)-8-ethyl-2-(4-methoxybenzylsulfanyl)-9-methyl-9H-purine] | 130 | 290 | 90 | 130 | 240
26 | CCNc1nc(SCc2ccc(OC)c(C#N)c2)nc2c1ncn2C [Compound 89, 2-(3-cyano-4-methoxybenzylsulfanyl)-6-ethylamino-9-methyl-9H-purine] | 120 | 130 | 110 | 210 | 150
